# pIC50: −log10 of the molar value.
# Target: T1, SARM1 (Homo sapiens, UniProt Q6SZW1)
# T1 construct: made in house; host or cells: NRK1-HEK293T cells, transiently transfected; clarified lysate used unpurified
# T1 sequence (Q6SZW1 with tags, fused parts or gaps): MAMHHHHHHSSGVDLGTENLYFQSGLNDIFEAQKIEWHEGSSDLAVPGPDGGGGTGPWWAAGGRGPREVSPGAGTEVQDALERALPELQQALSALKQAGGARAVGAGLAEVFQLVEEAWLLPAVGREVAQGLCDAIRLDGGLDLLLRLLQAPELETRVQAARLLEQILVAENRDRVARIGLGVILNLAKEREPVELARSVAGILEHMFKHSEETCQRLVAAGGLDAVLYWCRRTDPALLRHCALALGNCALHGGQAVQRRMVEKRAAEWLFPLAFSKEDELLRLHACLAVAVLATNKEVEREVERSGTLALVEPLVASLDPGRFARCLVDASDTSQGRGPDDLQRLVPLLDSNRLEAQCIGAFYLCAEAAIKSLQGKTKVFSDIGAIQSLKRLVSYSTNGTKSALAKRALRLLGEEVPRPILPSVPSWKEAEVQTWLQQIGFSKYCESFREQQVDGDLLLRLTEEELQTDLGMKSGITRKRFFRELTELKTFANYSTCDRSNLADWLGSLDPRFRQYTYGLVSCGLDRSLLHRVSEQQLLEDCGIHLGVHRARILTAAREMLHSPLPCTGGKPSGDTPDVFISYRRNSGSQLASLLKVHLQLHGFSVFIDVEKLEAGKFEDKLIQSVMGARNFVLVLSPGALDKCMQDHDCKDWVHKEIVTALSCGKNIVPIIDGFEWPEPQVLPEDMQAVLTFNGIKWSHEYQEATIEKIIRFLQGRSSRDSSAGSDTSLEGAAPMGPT
# Assay: ARM-SAM-TIR SARM1 IC50 assay (NADase activity, NAD+ cleavage)
# Type: biochemical
# Details: not given
# Method: This Example describes an assay of ARM-SAM-TIR NADase activity and use of this assay to measure the efficacy of compounds of Formula I to block SARM1 mediated NAD+ cleavage. This assay is optimized in such a way as to characterize the efficacy of the compounds in Formula I to inhibit SARM1 activity and to calculate an IC50 value for each compound. This assay makes use of full length SARM1, which encompasses the ARM, SAM and TIR domains.
# NRK1-HEK293T cells were seeded onto 150 cm^2 plates at 20×10^6 cells per plate. The next day, the cells were transfected with 15 μg ARM-SAM-TIR expression plasmid, SEQ ID NO: 1.
# The cultures were supplemented with 1 mM NR at time of transfection to minimize toxicity from ARM-SAM-TIR overexpression. Forty-eight hours after transfection, cells were harvested, pelleted by centrifugation at 1,000 rpm (Sorvall ST 16R centrifuge, Thermo Fisher), and washed once with cold PBS (0.01 M phosphate buffered saline NaCl 0.138 M; KCl 0.0027 M; pH 7.4). The cells were resuspended in PBS with protease inhibitors (cOmplete™ protease inhibitor cocktail, Roche product #11873580001) and cell lysates were prepared by sonication (Branson Sonifer 450, output=3, 20 episodes of stroke). The lysates were centrifuged (12,000×g for 10 min at 4° C.) to remove cell debris and the supernatants (containing ARM-SAM-TIR protein) were stored at −80° C. for later use in the in vitro ARM-SAM-TIR NADase assay (see below). Protein concentration was determined by the Bicinchoninic (BCA) method and used to normalize lysate concentrations.
# The enzymatic assay was performed in a 384-well polypropylene plate in Dulbecco's PBS buffer in a final assay volume of 20 μL. ARM-SAM-TIR lysate with a final concentration of 5 μg/mL was pre-incubated with the respective compound at 1% DMSO final assay concentration over 2 h at room temperature. The reaction was initiated by addition of 5 μM final assay concentration of NAD+ as substrate. After a 2 hr room temperature incubation, the reaction was terminated with 40 μL of stop solution of 7.5% trichloroacetic acid in acetonitrile. The NAD+ and ADPR concentrations were analyzed by a RapidFire High Throughput Mass Spectrometry System (Agilent Technologies, Santa Clara, Calif.) using an API4000 triple quadrupole mass spectrometer (AB Sciex Framingham, Mass.).
row,SMILES,pIC50
1,COc1cncc(NCc2ccc(C3=CCN(C)CC3)nc2)n1 [Example 124],4.82 to 5.30
2,COc1cncc(NCc2ccc(Cl)nc2)n1 [Example 44],4.82 to 5.30
3,COc1cncc(NCc2cncnc2)n1 [Example 22],4.82 to 5.30
4,CCOc1cncc(NCc2ccc(C)nc2)n1 [Example 9],4.82 to 5.30

# Same assay, conditions: ARM-SAM-TIR lysate 5 μg/mL from NRK1-HEK293T cells; 2 h pre-incubation; 5 μM NAD+; 2 hr room temperature; NAD+ and ADPR by RapidFire MS; read-out: SARM1 IC50
row,SMILES,pIC50
1,COc1cncc(NCc2ccc(S(N)(=O)=O)cc2)n1 [Example 63],> 5.30
2,COc1cncc(NCc2ccc(-c3ccccc3)nc2)n1 [Example 142],4.82 to 5.30
3,CCNC(=O)n1cc(CNc2cncc(OC)n2)cn1 [Example 149],4.82 to 5.30
4,COc1cncc(NCc2cnn(C3CCNCC3)c2)n1 [Example 105],> 5.30
5,CNc1cncc(OCCCNC(=O)OC(C)(C)C)n1 [Example 168],< 4.52
6,COc1cncc(NCc2ccc(N3CCN(C(C)C)CC3)nc2)n1 [Example 147],4.82 to 5.30
7,CNc1cncc(OCc2ccccc2)n1 [Example 163],4.82 to 5.30
8,CCc1cncc(NCc2cccnc2)n1 [Example 138],4.52 to 4.82
9,COc1cncc(NCc2cc[nH]c(=O)c2)n1 [Example 66],4.82 to 5.30
10,COc1cncc(NCc2cnn(-c3ccccc3)c2)n1 [Example 73],4.82 to 5.30
11,COc1cncc(NCc2ccc(Br)c(C)c2)n1 [Example 100],4.82 to 5.30
12,COc1cncc(NCc2cnn(C(C)C)c2)n1 [Example 92],4.82 to 5.30
13,Cn1cc(CNc2cncc(OCC(F)(F)F)n2)cn1 [Example 117],< 4.52
14,COc1cncc(NCc2cnn(C3CCN(C(C)=O)CC3)c2)n1 [Example 134],4.52 to 4.82
15,CN(C)c1cncc(NCc2cccnc2)n1 [Example 16],4.52 to 4.82
16,CCN1CCN(c2ccc(CNc3cnccn3)cc2)CC1 [Example 182],< 4.52
17,Oc1cncc(NCc2cccnc2)c1 [Example 14],4.82 to 5.30
18,COc1cncc(NCc2ccc(C#N)cc2)n1 [Example 129],4.82 to 5.30
19,CNc1cncc(OCCCCN)n1 [Example 173],< 4.52
20,COc1cncc(NCc2ccc(N3CCNC(=O)C3)nc2)n1 [Example 114],4.82 to 5.30
21,COc1cncc(NCc2cnc(C)s2)n1 [Example 70],4.82 to 5.30
22,CCN1CCC(n2cc(CNc3cncc(OC)n3)cn2)CC1 [Example 120],> 5.30
23,COc1cccc(CNc2cncc(OC)n2)c1 [Example 37],4.82 to 5.30
24,CCOc1cncc(NC(C)c2ccccn2)n1 (stereo not drawn) [Example 184],< 4.52
25,Cn1cc(CNc2cncc(NCCCCO)n2)cn1 [Example 151],4.82 to 5.30
26,COc1cncc(S(=O)(=O)NCc2ccccc2)c1 [Example 207],< 4.52
27,Cn1cc(CNc2cncc(OCCC3CCCO3)n2)cn1 (stereo not drawn) [Example 177],< 4.52

row,SMILES,pIC50
1,COc1cncc(NCC2CCOCC2)n1 [Example 41],< 4.52
2,CCOc1cncc(NCc2ccccn2)n1 [Example 185],< 4.52
3,COc1cncc(NCc2cnn(CCN(C)C)c2)n1 [Example 104],4.82 to 5.30
4,COc1cncc(NCc2ccc(N3CCC(F)(F)CC3)nc2)n1 [Example 130],4.82 to 5.30
5,COc1cncc(NCc2cccc(N3CCNCC3)c2)n1 [Example 126],4.82 to 5.30
6,COc1cncc(C(=O)Nc2ccccc2)n1 [Example 197],< 4.52
7,COc1cnc(C)c(NCc2cccnc2)n1 [Example 204],< 4.52
8,COc1cncc(NCc2ccc(S(=O)(=O)N(C)C)cc2)n1 [Example 156],4.52 to 4.82
9,COc1cncc(NCc2cnn(S(C)(=O)=O)c2)n1 [Example 150],4.82 to 5.30
10,CNc1nccc(OC)n1 [Example 162],< 4.52
11,N#Cc1cncc(NCc2cccnc2)n1 [Example 154],< 4.52
12,COc1cncc(NCc2ccn(C)c2)n1 [Example 42],4.82 to 5.30
13,COc1cncc(NCc2cccc(Br)c2)n1 [Example 109],4.82 to 5.30
14,CNC(=O)c1cncc(NC)n1 [Example 164],< 4.52
15,CCCCCOc1cncc(NCc2cccnc2)n1 [Example 15],< 4.52
16,COc1cncc(NCc2cnc(C)o2)n1 [Example 121],4.82 to 5.30
17,COc1cncc(NCc2cncc3ccccc23)n1 [Example 27],4.82 to 5.30
18,COc1cncc(NCc2cnc[nH]2)n1 [Example 61],> 5.30
19,NC(=O)c1cncc(NCc2cccnc2)n1 [Example 212],< 4.52
20,COc1cncc(NCc2cnc3c(c2)ncn3C)n1 [Example 48],4.52 to 4.82
21,COc1cc(NC(=O)c2cnccn2)cnn1 [Example 137],< 4.52
22,Cc1ncc(Cl)nc1NCc1cccnc1 [Example 201],< 4.52
23,COc1cc(NCc2cc[nH]c(=O)c2)cnn1 [Example 176],< 4.52
24,COc1cncc(NCc2ccc(-c3nnco3)cc2)n1 [Example 146],4.82 to 5.30
25,COc1cncc(N(C)S(=O)(=O)c2ccccc2)c1 [Example 208],< 4.52
26,COc1cncc(NCc2cnn3cccnc23)n1 [Example 89],4.52 to 4.82
27,COc1cncc(N)c1 [Example 160],4.52 to 4.82

row,SMILES,pIC50
1,COc1cncc(NCc2ccc(-c3ccncc3)nc2)n1 [Example 141],4.82 to 5.30
2,COc1cnc(NCc2cccnc2)cn1 [Example 203],< 4.52
3,COc1cc(NCc2cccnc2)cc(=O)[nH]1 [Example 153],< 4.52
4,COc1cncc(NC(C)c2cccnc2)n1 (stereo not drawn) [Example 31],4.52 to 4.82
5,COc1cncc(NC(=O)c2ccccc2)c1 [Example 110],< 4.52
6,CCCc1cncc(NCc2cccnc2)n1 [Example 200],< 4.52
7,COc1cncc(NCCCc2ccccc2)n1 [Example 33],4.82 to 5.30
8,CCCOc1cncc(NCc2cnn(C)c2)n1 [Example 170],< 4.52
9,COc1cncc(C(=O)NCc2ccccc2)n1 [Example 196],< 4.52
10,COc1cncc(NCc2cccc(C(N)=O)c2)n1 [Example 65],4.82 to 5.30
11,CC(C)Oc1cncc(NCc2cccnc2)n1 [Example 13],< 4.52
12,COc1cncc(NCc2cnco2)n1 [Example 68],4.82 to 5.30
13,COc1cncc(NCc2cccc(S(N)(=O)=O)c2)n1 [Example 211],4.82 to 5.30
14,COc1cncc(NCc2cnn(C3CCN(S(C)(=O)=O)CC3)c2)n1 [Example 107],4.82 to 5.30
15,COC(=O)c1ccc(CNc2cncc(OC)n2)cc1 [Example 67],4.82 to 5.30
16,CCOc1cncc(NC(=O)c2ccccc2)n1 [Example 192],< 4.52
17,COCCn1cc(CNc2cncc(OC)n2)cn1 [Example 93],4.82 to 5.30
18,COc1cncc(NCc2cnc3ccccc3c2)n1 [Example 26],4.82 to 5.30
19,CCN1CCN(c2ncc(CNc3cncc(OC)n3)cn2)C(C)C1 (stereo not drawn) [Example 122],4.82 to 5.30
20,COc1cc(NCc2cccnc2)cnn1 [Example 95],< 4.52
21,COc1cncc(NC(=O)c2cccnc2)c1 [Example 111],< 4.52
22,COc1cncc(N)n1 [Example 159],4.52 to 4.82
23,COc1cncc(NCc2cccnc2O)n1 [Example 145],< 4.52
24,COc1cncc(NC(=O)c2ccc3ccccc3n2)n1 [Example 23],4.82 to 5.30
25,COc1cncc(NCc2ccc(C3CCN(C)CC3)nc2)n1 [Example 125],4.82 to 5.30
26,COc1cncc(NCc2ccc(-c3nn[nH]n3)cc2)n1 [Example 158],4.52 to 4.82

# Source: US12595252B2, “Inhibitors of SARM1” (DISARM THERAPEUTICS, INC., priority 2019, dated 2026)
